# Laboratory results taken from ChEMBL document CHEMBL5625174, “Are inhibitors of histone deacetylase 8 (HDAC8) effective in hematological cancers especially acute myeloid leukemia (AML) and acute lymphoblastic leukemia (ALL)?” (Eur J Med Chem, 2023).
# What was measured:
# MT4 = experiment: Cytotoxicity against human MT4 cells assessed as inhibition of cell growth incubated for 72 hrs by CCK-8 assay; format: functional
# [1] = Inhibition of HDAC6 (unknown origin) assessed as release of fluorogenic AMC pre-incubated for 15 mins followed by addition of trypsin and substrate measured after 60 mins microplate reader analysis; parameters: species or system Homo sapiens
# Jurkat [2] = experiment: Antiproliferative activity against human Jurkat cells assessed as cell growth inhibition measured after 72 hrs by CCK-8 assay; format: functional
# HH = experiment: Antiproliferative activity against human HH cells assessed as cell growth inhibition measured after 72 hrs by CCK-8 assay; format: functional
# HuT78 = experiment: Anti-proliferative activity against human HuT78 cells assessed as growth inhibition incubated for 72 hrs by alamar blue staining based fluorometric assay; format: functional
# Jurkat E6.1 [3] = experiment: Cytotoxicity against human Jurkat E6.1 cells assessed as reduction in cell viability incubated for 72 hrs by MTT assay; format: functional, cell-based; conditions: Jurkat E6.1, 72 h
# Jurkat [4] = experiment: cells; format: functional; conditions: Homo sapiens
# Description: Growth inhibition of human Jurkat cells
# U-937 = experiment: Cytotoxicity against human U-937 cells assessed as reduction in cell viability; format: functional, cell-based
# MOLT-4 = experiment: Cytotoxicity against human MOLT-4 cells assessed as reduction in cell viability; format: functional, cell-based
# Jurkat E6.1 [5] = experiment: Cytotoxicity against human Jurkat E6.1 cells assessed as reduction in cell growth measured after 48 hrs by MTT assay; format: functional, cell-based; conditions: Jurkat E6.1, 48 h
# Jurkat E6.1 [6] = experiment: Cytotoxicity against human Jurkat E6.1 cells assessed as reduction in cell viability; format: functional, cell-based
# Histone deacetylase = experiment: Inhibition of HDAC (unknown origin) using Fluoro-Substrate Peptide as substrate by fluorescence assay; format: protein assay, Homo sapiens
# Histone deacetylase 8 [7] = target: T1, Histone deacetylase 8 (Homo sapiens, UniProt Q9BY41); experiment: Inhibition of HDAC8 (unknown origin) by fluorescence based assay
# T1 sequence (Q9BY41 whole entry): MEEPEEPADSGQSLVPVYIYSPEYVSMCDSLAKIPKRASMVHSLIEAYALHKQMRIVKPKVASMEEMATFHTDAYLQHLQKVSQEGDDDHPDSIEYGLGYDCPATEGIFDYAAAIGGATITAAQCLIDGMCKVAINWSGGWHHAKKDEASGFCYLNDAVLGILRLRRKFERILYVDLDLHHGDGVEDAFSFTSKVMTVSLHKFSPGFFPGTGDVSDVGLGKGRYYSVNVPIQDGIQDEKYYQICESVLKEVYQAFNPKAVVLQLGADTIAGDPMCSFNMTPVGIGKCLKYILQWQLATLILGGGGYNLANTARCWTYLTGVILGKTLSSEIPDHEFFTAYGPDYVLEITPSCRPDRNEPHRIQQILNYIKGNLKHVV
# Histone deacetylase 8 [8] = target: T1, Histone deacetylase 8; experiment: Inhibition of human recombinant HDAC8 using fluorogenic HDAC substrate class 2A preincubated for 30 mins followed by substrate addition and measured after 15 mins by fluorogenic assay
# Jurkat [9] = experiment: Cytotoxicity against human Jurkat cells assessed as reduction in cell viability incubated for 24 hrs by CellTiter-Glo luminescent cell viability assay; format: functional
# [10] = target: T2, Histone deacetylase 8 (Homo sapiens) (UniProt Q9BY41); experiment: Inhibition of His-tagged recombinant HDAC8 (unknown origin) at 10 uM using Boc-Lys(triflouroacetyl)-AMC as fluorogenic substrate pre-incubated for 30 mins followed by substrate addition and measured after 30 mins by fluorescence based analysis relative to control; conditions: time 60.0 min
# T2 sequence (whole entry): T1 sequence (Q9BY41 whole entry)
# Histone deacetylase 2 = Histone deacetylase 2 (Homo sapiens, UniProt Q92769); experiment: Inhibition of HDAC2 (unknown origin) assessed as release of fluorogenic AMC pre-incubated for 15 mins followed by addition of trypsin and substrate measured after 60 mins microplate reader analysis
# Chain of Histone deacetylase 2 (Q92769 whole entry): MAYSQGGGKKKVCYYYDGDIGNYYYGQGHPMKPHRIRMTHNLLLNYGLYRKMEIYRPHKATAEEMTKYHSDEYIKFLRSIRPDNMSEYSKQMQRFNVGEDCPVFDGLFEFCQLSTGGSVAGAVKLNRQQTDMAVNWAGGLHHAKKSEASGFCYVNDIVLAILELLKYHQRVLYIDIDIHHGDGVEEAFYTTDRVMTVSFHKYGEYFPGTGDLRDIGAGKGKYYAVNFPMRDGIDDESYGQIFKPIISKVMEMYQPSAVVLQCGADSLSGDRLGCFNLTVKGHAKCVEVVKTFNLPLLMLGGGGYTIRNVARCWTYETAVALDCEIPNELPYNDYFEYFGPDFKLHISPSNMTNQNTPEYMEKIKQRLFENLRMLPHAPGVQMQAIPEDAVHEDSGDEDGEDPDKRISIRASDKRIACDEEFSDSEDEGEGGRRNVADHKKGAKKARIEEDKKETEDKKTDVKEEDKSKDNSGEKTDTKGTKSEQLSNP
# Histone deacetylase 4 = Histone deacetylase 4 (Homo sapiens, UniProt P56524); experiment: Inhibition of HDAC4 (unknown origin) assessed as release of fluorogenic AMC pre-incubated for 15 mins followed by addition of trypsin and substrate measured after 60 mins microplate reader analysis
# Chain of Histone deacetylase 4 (P56524 whole entry): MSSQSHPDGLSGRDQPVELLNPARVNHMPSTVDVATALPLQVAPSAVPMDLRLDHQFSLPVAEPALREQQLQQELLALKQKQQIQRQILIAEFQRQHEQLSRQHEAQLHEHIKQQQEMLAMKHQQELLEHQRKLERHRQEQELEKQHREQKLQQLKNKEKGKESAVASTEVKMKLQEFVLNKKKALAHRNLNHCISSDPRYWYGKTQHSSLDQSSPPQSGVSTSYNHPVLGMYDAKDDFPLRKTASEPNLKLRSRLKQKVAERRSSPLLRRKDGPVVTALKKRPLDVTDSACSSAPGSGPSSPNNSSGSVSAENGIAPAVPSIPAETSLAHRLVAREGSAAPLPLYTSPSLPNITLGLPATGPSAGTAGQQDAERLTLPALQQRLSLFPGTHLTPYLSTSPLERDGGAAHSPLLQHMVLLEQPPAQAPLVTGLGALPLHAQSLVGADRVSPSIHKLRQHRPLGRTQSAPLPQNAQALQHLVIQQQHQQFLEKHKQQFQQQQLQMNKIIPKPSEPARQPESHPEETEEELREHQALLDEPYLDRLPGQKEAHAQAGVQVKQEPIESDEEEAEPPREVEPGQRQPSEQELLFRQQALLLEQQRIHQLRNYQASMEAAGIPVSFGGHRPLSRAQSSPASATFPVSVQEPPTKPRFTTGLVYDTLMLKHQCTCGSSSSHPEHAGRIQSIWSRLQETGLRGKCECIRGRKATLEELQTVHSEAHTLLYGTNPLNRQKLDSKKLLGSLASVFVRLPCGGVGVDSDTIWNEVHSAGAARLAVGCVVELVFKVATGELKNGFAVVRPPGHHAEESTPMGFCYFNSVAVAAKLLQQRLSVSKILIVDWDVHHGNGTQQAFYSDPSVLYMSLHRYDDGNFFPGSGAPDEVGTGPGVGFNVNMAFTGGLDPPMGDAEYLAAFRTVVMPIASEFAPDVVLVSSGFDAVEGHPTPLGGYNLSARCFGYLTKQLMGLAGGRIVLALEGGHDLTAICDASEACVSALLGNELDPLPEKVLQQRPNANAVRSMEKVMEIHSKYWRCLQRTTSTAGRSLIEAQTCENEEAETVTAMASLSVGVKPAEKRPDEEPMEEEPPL
# Histone deacetylase 1 = Histone deacetylase 1 (Homo sapiens, UniProt Q13547); experiment: Inhibition of HDAC1 (unknown origin) using Ac-Leu-Gly-Lys(Ac)-AMC as substrate pre-incubated for 30 mins followed by substrate addition and measured after 30 mins by fluorescence based analysis
# Chain of Histone deacetylase 1 (Q13547 whole entry): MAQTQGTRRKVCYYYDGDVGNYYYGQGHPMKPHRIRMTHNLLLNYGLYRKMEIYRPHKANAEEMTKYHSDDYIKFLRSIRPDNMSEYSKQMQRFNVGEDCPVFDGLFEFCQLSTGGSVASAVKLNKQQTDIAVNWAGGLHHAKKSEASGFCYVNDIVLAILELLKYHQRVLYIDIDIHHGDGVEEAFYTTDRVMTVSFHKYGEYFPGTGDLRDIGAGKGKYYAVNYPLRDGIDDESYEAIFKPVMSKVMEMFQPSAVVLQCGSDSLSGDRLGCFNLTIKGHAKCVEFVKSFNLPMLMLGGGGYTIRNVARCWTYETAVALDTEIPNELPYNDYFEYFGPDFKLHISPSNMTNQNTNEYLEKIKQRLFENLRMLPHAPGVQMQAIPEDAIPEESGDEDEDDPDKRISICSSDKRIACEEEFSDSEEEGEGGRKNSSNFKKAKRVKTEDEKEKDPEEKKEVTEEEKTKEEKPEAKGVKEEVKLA
# [11] = target: Macrophage metalloelastase (Homo sapiens, UniProt P39900); experiment: Inhibition of MMP-12 (unknown origin)
# Chain of Macrophage metalloelastase (P39900 whole entry): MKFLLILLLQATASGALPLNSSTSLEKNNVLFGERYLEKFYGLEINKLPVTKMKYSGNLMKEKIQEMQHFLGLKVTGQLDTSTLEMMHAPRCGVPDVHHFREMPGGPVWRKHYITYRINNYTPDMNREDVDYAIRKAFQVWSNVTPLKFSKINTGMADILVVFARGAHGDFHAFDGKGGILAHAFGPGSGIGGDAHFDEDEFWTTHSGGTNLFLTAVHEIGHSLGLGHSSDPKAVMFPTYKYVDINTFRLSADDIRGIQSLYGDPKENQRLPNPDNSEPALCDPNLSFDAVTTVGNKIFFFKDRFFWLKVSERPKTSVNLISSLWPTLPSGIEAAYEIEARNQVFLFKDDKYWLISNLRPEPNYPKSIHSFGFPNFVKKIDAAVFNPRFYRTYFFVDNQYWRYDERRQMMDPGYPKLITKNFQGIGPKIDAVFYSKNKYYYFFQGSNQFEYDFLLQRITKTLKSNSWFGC
# Histone deacetylase 8 [12] = target: T1, Histone deacetylase 8; experiment: Inhibition of HDAC8 (unknown origin) using as Fluor-de-lys substrate by fluorescence based analysis
# [13] = target: 72 kDa type IV collagenase (Homo sapiens, UniProt P08253); experiment: Inhibition of MMP-2 (unknown origin)
# Chain of 72 kDa type IV collagenase (P08253 whole entry): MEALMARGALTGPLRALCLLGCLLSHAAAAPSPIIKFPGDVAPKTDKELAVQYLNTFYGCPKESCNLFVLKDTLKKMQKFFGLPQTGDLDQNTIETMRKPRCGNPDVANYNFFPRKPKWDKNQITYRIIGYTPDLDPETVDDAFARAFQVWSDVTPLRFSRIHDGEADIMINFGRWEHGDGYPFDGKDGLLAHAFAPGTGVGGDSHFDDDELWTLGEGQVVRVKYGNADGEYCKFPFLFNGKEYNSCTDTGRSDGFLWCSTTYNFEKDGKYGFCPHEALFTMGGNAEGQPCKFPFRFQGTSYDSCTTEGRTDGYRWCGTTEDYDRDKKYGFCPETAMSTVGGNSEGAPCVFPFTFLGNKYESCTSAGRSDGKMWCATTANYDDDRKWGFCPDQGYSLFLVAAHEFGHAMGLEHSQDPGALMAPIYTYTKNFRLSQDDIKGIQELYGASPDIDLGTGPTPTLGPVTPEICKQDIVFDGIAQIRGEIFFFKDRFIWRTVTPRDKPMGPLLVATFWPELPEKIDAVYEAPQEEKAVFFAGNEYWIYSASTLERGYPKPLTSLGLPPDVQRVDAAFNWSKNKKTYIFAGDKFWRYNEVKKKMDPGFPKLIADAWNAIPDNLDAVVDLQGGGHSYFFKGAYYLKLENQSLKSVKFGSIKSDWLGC
# [14] = target: Matrix metalloproteinase-14 (Homo sapiens, UniProt P50281); experiment: Inhibition of MMP-14 (unknown origin)
# [15] = target: Matrix metalloproteinase-9 (Homo sapiens, UniProt P14780); experiment: Inhibition of MMP-9 (unknown origin)
# Chain of Matrix metalloproteinase-9 (P14780 whole entry): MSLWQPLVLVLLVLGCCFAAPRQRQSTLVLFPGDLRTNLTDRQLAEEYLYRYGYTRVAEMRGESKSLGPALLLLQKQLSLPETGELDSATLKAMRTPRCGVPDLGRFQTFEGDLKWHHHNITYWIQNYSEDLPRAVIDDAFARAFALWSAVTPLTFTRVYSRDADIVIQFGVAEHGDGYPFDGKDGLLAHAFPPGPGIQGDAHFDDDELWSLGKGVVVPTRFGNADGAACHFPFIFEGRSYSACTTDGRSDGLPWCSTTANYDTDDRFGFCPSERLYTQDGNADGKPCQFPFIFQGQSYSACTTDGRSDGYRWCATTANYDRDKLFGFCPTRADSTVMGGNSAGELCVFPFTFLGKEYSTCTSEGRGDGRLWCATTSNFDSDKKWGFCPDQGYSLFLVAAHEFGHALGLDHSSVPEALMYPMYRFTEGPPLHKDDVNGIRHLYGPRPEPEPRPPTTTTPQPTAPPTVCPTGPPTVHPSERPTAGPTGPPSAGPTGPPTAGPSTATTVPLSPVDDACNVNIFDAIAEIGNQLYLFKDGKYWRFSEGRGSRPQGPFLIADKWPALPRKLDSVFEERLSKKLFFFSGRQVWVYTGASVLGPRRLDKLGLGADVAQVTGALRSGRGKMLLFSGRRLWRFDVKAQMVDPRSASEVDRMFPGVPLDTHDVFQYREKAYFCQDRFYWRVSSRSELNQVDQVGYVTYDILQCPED
# Neutrophil collagenase = Neutrophil collagenase (Homo sapiens, UniProt P22894); experiment: Inhibition of MMP-8 (unknown origin)
# Chain of Neutrophil collagenase (P22894 whole entry): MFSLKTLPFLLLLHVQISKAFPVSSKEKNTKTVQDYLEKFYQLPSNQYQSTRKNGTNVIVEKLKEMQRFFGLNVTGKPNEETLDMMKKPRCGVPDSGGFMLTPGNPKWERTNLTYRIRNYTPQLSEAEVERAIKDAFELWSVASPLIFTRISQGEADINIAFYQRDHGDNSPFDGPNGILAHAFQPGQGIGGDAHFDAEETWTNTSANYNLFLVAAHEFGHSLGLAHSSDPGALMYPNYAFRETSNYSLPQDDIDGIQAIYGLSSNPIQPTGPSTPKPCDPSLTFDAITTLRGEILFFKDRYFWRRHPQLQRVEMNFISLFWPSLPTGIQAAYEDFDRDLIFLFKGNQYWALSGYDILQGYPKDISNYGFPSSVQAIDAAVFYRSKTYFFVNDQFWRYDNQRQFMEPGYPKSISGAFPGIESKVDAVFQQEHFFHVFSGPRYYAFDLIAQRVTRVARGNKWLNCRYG
smiles,measurement,setting,value
O=C(NO)c1cccc(-c2cn(CSc3ccccc3)nn2)c1,GI50,MT4,22 µM
same,IC50,[1],2.4 µM
same,GI50,Jurkat [2],2.8 µM
same,GI50,HH,21 µM
same,GI50,HuT78,32 µM
CCCCCNC(=O)[C@H](CCC(=O)NO)NC(=O)Cc1ccccc1,IC50,Jurkat E6.1 [3],< 50 µM
CC(C)CNC(=O)[C@H](CCC(=O)NO)NC(=O)Cc1ccccc1F,IC50,Jurkat E6.1 [3],> 50 µM
COc1ccc(Cn2ccc3ccc(C(=O)NO)cc32)cc1,GI50,Jurkat [4],2.4 µM
same,IC50,[1],2.9 µM
O=C(O)CC[C@H](NC(=O)Cc1ccc(Br)cc1)C(=O)NCc1ccc(F)cc1,IC50,U-937,> 35 µM
same,IC50,MOLT-4,> 35 µM
same,IC50,Jurkat E6.1 [5],1.62 µM
same,IC50,Jurkat E6.1 [6],< 35 µM
same,IC50,Histone deacetylase,> 10 µM
same,IC50,Histone deacetylase 8 [7],≤ 10 µM
O=C1CN[C@H](Cc2cc3ccccc3[nH]2)C(=O)N1,IC50,Histone deacetylase 8 [8],0.0511 µM
O=C1CN[C@H](Cc2ccccc2)C(=O)N1,IC50,Histone deacetylase 8 [8],0.0215 µM
CCCCCNC(=O)[C@H](CCC(=O)NO)NC(=O)Cc1ccc(Br)cc1,IC50,Jurkat E6.1 [3],> 50 µM
N[C@H](Cc1ccc(Cl)cc1Cl)C(=O)N1Cc2ccccc2C1,IC50,[1],> 30 µM
CCC(=O)CCCCC[C@@H]1NC(=O)[C@H]2CCCCN2C(=O)[C@H]([C@@H](C)CC)NC(=O)[C@H](Cc2cn(OC)c3ccccc23)NC1=O [APICIDIN],CC50,Jurkat [9],10 µM
CC(C)C[C@H](NC(=O)[C@@H](O)[C@H](N)Cc1ccccc1)C(=O)NCCOCCOCC(=O)Nc1cccc(C(=O)NO)c1,inhibition,[10],71%
CC(C)C[C@H](NC(=O)[C@@H](O)[C@H](N)Cc1ccccc1)C(=O)NCCOCCOCCNC(=O)c1cccc(C(=O)NO)c1,inhibition,[10],64%
CCCCCCNC(=O)[C@H](CCC(=O)NO)NC(=O)Cc1ccccc1,IC50,Jurkat E6.1 [3],< 50 µM
O=C(NO)c1cccc(-n2cc(CSc3ccccc3)nn2)c1,IC50,Histone deacetylase 2,> 100 µM
same,GI50,Jurkat [4],24 µM
same,IC50,Histone deacetylase 4,> 100 µM
same,IC50,[1],2.2 µM
same,IC50,Histone deacetylase 1,> 100 µM
O=C(O)CC[C@H](NC(=O)Cc1ccc(Br)cc1)C(=O)NCc1ccc([N+](=O)[O-])cc1,IC50,[11],138 µM
same,IC50,U-937,≤ 35 µM
same,IC50,Histone deacetylase 8 [12],2.89 µM
same,IC50,[13],6.4 µM
same,IC50,MOLT-4,≤ 35 µM
same,IC50,[14],56.6 µM
same,IC50,[15],4.83 µM
same,IC50,Jurkat E6.1 [6],≤ 35 µM
same,IC50,Histone deacetylase,> 10 µM
same,IC50,Histone deacetylase 8 [7],≤ 10 µM
same,IC50,Neutrophil collagenase,206 µM
CCCCCNC(=O)[C@H](CCC(=O)NO)NC(=O)Cc1ccc(Cl)cc1Cl,IC50,Jurkat E6.1 [3],< 50 µM
CC(C)C[C@H](NC(=O)[C@@H](O)[C@H](N)Cc1ccccc1)C(=O)NCCCCCC(=O)Nc1ccc(NC(=O)CCCCCCC(=O)NO)cc1,inhibition,[10],90%
CSCC[C@@H]1NCC(=O)NC1=O,IC50,Histone deacetylase 8 [8],0.0884 µM
O=C1CN[C@@H](Cc2ccccc2)C(=O)N1,IC50,Histone deacetylase 8 [8],0.0674 µM
O=C(NO)c1ccc(-c2cccc3ccccc23)cc1,IC50,[1],55 µM
same,IC50,Histone deacetylase 1,> 100 µM
CCCCCCNC(=O)[C@H](CCC(=O)O)NC(=O)Cc1ccc(Cl)cc1Cl,IC50,U-937,≤ 35 µM
same,IC50,MOLT-4,≤ 35 µM
same,IC50,Jurkat E6.1 [6],≤ 35 µM
same,IC50,Histone deacetylase,> 10 µM
same,IC50,Histone deacetylase 8 [7],≤ 10 µM
